The values that follow come from PubChem BioAssay (NCI).

Structures are written as SMILES.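 Assay format: 96-well plates, 48-hour exposure. The concentration for full growth arrest is given as TGI.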

Among the test systems are DMS 114 small cell lung; RXF 393 renal; OVCAR-4 ovarian; U251 CNS; NCI-H522 lung; UACC-62 melanoma; SNB-78 CNS; HCC-2998 colon; HOP-18 NSCLC; 786-0 renal; SNB-19 CNS.
Common to all, as to assay: NCI-60 cell line screen, 48 h

On to `CCC1=C(C(C)=O)[C@@H]2CCCCC[C@@H](C(=O)OC)C2C1=O` (stereo partly drawn), for which the TGI in the experiment with DMS 114 small cell lung, in the experiment with RXF 393 renal, in the experiment on OVCAR-4 ovarian, in the experiment with U251 CNS, in the experiment with NCI-H522 lung and in the experiment with UACC-62 melanoma was over 100 µM each time. The TGI with SNB-78 CNS, with HCC-2998 colon, with HOP-18 NSCLC, in the experiment on 786-0 renal and in the experiment on SNB-19 CNS was over 100 µM in each case.
For the compound `Cc1cc(C)nc(NS(=O)(=O)c2ccc(Nc3c4ccccc4nc4c(C(=O)N5CCN(CCOS(C)(=O)=O)CC5)cccc34)cc2)n1`, the TGI in the experiment on DMS 114 small cell lung, in the experiment with RXF 393 renal, in the experiment on OVCAR-4 ovarian, in the experiment on U251 CNS, with UACC-62 melanoma and in the experiment on SNB-78 CNS was over 100 µM each time. Further, the TGI with HCC-2998 colon and in the experiment with SNB-19 CNS was over 100 µM each time.
Take `CCCCOc1ccc(OCCCCCCCCCC[N+](C)(C)C)cc1`: the TGI came out at 6.75 µM in the experiment on DMS 114 small cell lung; 3.34 µM in the experiment with RXF 393 renal; 14.8 µM in the experiment with OVCAR-4 ovarian; 9.16 µM in the experiment with U251 CNS; 5.22 µM in the experiment with NCI-H522 lung; 15.7 µM in the experiment on UACC-62 melanoma. Further, the TGI is 9.78 µM with SNB-78 CNS, 6.28 µM with HCC-2998 colon, 13.7 µM in the experiment with HOP-18 NSCLC and 23.3 µM in the experiment with SNB-19 CNS.
Consider `CC(C)N1CC2CC(CN(C(=O)c3ccccc3)C2)C1`, for which the TGI in the experiment with DMS 114 small cell lung, in the experiment with RXF 393 renal, with OVCAR-4 ovarian, with U251 CNS, with NCI-H522 lung and in the experiment with UACC-62 melanoma was over 100 µM in each case. Also, the TGI with HCC-2998 colon, in the experiment with HOP-18 NSCLC, in the experiment with 786-0 renal and with SNB-19 CNS was over 100 µM throughout.
`CN(C)CCNC(=O)c1cc(Cl)cc2ccc(-c3ccccc3)nc12`: the TGI in the experiment on DMS 114 small cell lung turned out to be 12.6 µM; with RXF 393 renal, 14.3 µM; in the experiment on OVCAR-4 ovarian it was 13.7 µM; in the experiment with U251 CNS, 15.3 µM; in the experiment on NCI-H522 lung, 16 µM; in the experiment on UACC-62 melanoma, 6.36 µM. Further, the TGI came out at 24.9 µM in the experiment on SNB-78 CNS, 13.8 µM in the experiment with HCC-2998 colon, 12.5 µM with HOP-18 NSCLC and 18.8 µM in the experiment on SNB-19 CNS.
With `NCCCCNCCCNC(=O)c1nc(-c2nc(CCN)sc2Cl)sc1Cl`, the TGI is 52.5 µM in the experiment with DMS 114 small cell lung; 37.1 µM with RXF 393 renal; 71.8 µM in the experiment on OVCAR-4 ovarian; over 100 µM with U251 CNS; 55.9 µM in the experiment with NCI-H522 lung; over 100 µM with UACC-62 melanoma. Also, the TGI in the experiment with SNB-78 CNS, in the experiment with HCC-2998 colon and with SNB-19 CNS was over 100 µM each time.
As for `CSc1cc(=O)n2c3ccccc3c3ccnc1c32`, the TGI with DMS 114 small cell lung, with RXF 393 renal, with OVCAR-4 ovarian, in the experiment on U251 CNS, with NCI-H522 lung and in the experiment with UACC-62 melanoma was over 100 µM throughout. The TGI is over 100 µM in the experiment on SNB-78 CNS, over 100 µM with HCC-2998 colon, 98.2 µM in the experiment with HOP-18 NSCLC and over 100 µM in the experiment on SNB-19 CNS.
Turning to `COC(=O)[C@@H]1CCCCC[C@H]2C(CO)=C(C)C(=O)C12` (stereo partly drawn), the TGI in the experiment on DMS 114 small cell lung, in the experiment on RXF 393 renal, in the experiment on OVCAR-4 ovarian, in the experiment with U251 CNS, in the experiment with NCI-H522 lung and in the experiment with UACC-62 melanoma was over 100 µM in each case. Moreover, the TGI with SNB-78 CNS, in the experiment with HCC-2998 colon, with HOP-18 NSCLC, with 786-0 renal and with SNB-19 CNS was over 100 µM each time.
As for `O=S(=O)(O)c1ccc(N=Nc2ccc(N=Nc3ccc(/C=C/c4ccc(N=[N+]([O-])c5ccc(/C=C/c6ccc(N=Nc7ccc(N=Nc8ccc(S(=O)(=O)O)cc8)cc7)cc6S(=O)(=O)O)c(S(=O)(=O)O)c5)cc4S(=O)(=O)O)c(S(=O)(=O)O)c3)cc2)cc1`, the TGI with DMS 114 small cell lung, in the experiment with RXF 393 renal, in the experiment on OVCAR-4 ovarian, in the experiment with U251 CNS, with NCI-H522 lung and with UACC-62 melanoma was over 100 µM in each case. Also, the TGI with HCC-2998 colon, with HOP-18 NSCLC and in the experiment with SNB-19 CNS was over 100 µM in each case.
